Test [1] concerns the target T1, Protein Tat (Human immunodeficiency virus type 1 group M subtype B (isolate HXB2)(HIV-1)) (UniProt P04608).
T1 sequence (whole entry): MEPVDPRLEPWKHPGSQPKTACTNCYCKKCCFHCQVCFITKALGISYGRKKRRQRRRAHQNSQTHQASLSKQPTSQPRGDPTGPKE
Kind of test: Binding constant (K) against Tat/TAR using 1:1 quinolone/Mg2+ complex done at 25 degree C with pH 7.5. To be noted: Human immunodeficiency virus 1.

Test [2] concerns the target Nucleic Acid. Kind of test: Effective concentration required for binding to mutant loopless TAR using electrophoretic mobility shift assays done at 25 degree C with pH 7.5. The test is classed as nucleic-acid assay, Human immunodeficiency virus 1. Background: A gel shift assay detects complexes by their altered migration in electrophoresis.
Test [3] has as its target Nucleic Acid. Kind of test: Effective concentration required for binding to tRNA using electrophoretic mobility shift assays done at 25 degree C with pH 7.5. The test is classed as nucleic-acid assay, Human immunodeficiency virus 1.
Test [4] deals with Nucleic Acid. Kind of test: Effective concentration required for binding to wild-type TAR using electrophoretic mobility shift assays done at 25 degree C with pH 7.5. The test is classed as nucleic-acid assay, Human immunodeficiency virus 1.
Test [5] has as its target Nucleic Acid. Description: Effective concentration required for binding to mutant double stranded TAR using electrophoretic mobility shift assays done at 25 degree C with pH 7.5. The test is classed as nucleic-acid assay, Human immunodeficiency virus 1.

Each structure is given as a SMILES string. pEC50: −log10 of the molar value.

What is called pEC50 is the EC50 on a negative log10 scale, so that one unit is a factor of ten.

Regarding `Cn1cc(C(=O)O)c(=O)c2cc(N)c(N3CCN(c4ccccn4)CC3)cc21`, in test [1], the K amounted to 6650 M⁻¹. The negative-log EC50 (pEC50) at Nucleic Acid [2] was 6.49; at Nucleic Acid [3], less than 4.30; at Nucleic Acid [4], 6.68.
In turn, `Nc1cc2c(=O)c(C(=O)O)cn(C3CC3)c2cc1N1CCN(c2cccc(C(F)(F)F)c2)CC1` gave a K in test [1] of 13600 M⁻¹. For the same compound, the negative logarithm of the EC50 (pEC50) is 7.30 on Nucleic Acid [5], 6.89 at Nucleic Acid [3] and 6.72 on Nucleic Acid [4].
Consider `O=C(O)c1cn(C2CC2)c2cc(N3CCNCC3)c(F)cc2c1=O`, for which the K in test [1] is 790 M⁻¹.
